Experimental data from patent US20030216361A1, “Therapeutic compositions effective against gram positive bacteria” (priority 2000, published 2003).
≈ marks a conversion by molar mass, not a printed value. Like-named read-outs stand apart in the source and are kept apart here.

Columns and labels:
[1] = tested on: Enterococcus faecalis 29212; assay: Time-kill studies; type: cell-based; settings: E. faecalis
From the text: (§1) This experiment illustrates a study of the time required (time-kill studies) for anti-microbial action of 3β-acetoxy-17β-(L-prolyl) amino-5α-androstane with certain gram positive bacteria.
(§2) Overnight cultures of Staphylococcus aureus 29213, Enterococcus faecalis 29212 and S. pneumoniae 6303 in MHII broth were inoculated into the same medium containing multiples of the broth macrodilution MIC of 3β-acetoxy-17β-(L-prolyl) amino-5α-androstane, or an equivalent volume of MeOH. Cultures were shaken at 37° C., and aliquots were aseptically removed at various times for dilution plating. Standard errors of the means were calculated from at least two experiments. The detection limit in these experiments was 10 CFU/ml.

[2] = tested on: Staphylococcus aureus 29213; assay: Time-kill studies; type: cell-based; settings: S. aureus
From the text: as §1, §2

S. pneumoniae 6303 = assay: Time-kill studies; type: cell-based, Streptococcus pneumoniae
From the text: as §1, §2

[3] = tested on: Methicillin-resistant Staphylococcus aureus, clinical isolate; assay: Effect of pH on broth macrodilution MICs; type: cell-based
[4] = tested on: Vancomycin-resistant Enterococcus faecalis, clinical isolate; assay: Effect of pH on broth macrodilution MICs; type: cell-based
E. faecalis ATCC 29212 = assay: Effect of pH on broth macrodilution MICs; type: cell-based, Enterococcus faecalis
[5] = tested on: Corynebacterium diphtheriae, clinical isolate; assay: Effect of pH on broth macrodilution MICs; type: cell-based
[6] = tested on: Staphylococcus aureus ATCC 29213; assay: Disk diffusion susceptibility testing
[7] = tested on: Staphylococcus epidermidis Presque Isle 4653; assay: Disk diffusion susceptibility testing
[8] = tested on: Micrococcus luteus Presque Isle 456; assay: Disk diffusion susceptibility testing
[9] = tested on: Neisseria gonorrhoeae ATCC 49226; assay: Disk diffusion susceptibility testing
[10] = tested on: Enterobacter cloacae ATCC 13047; assay: Disk diffusion susceptibility testing
[11] = tested on: Klebsiella pneumoniae Presque Isle 344; assay: Disk diffusion susceptibility testing
[12] = tested on: Methicillin-resistant Staphylococcus aureus; assay: Broth macrodilution MIC and MBC, clinical isolates
S. saprophyticus = assay: Broth macrodilution MIC and MBC, clinical isolates; settings: 3 strains
[13] = tested on: Vancomycin-resistant E. faecium; assay: Broth macrodilution MIC and MBC, clinical isolates; settings: 2 strains
Invasive S. pneumoniae = assay: Broth macrodilution MIC and MBC, clinical isolates
Group A Streptococcus = assay: Broth macrodilution MIC and MBC, clinical isolates
Bacillus subtilis = assay: Broth macrodilution MIC and MBC, clinical isolates; settings: 4 strains
B. circulans = assay: Broth macrodilution MIC and MBC, clinical isolates; settings: clinical isolate, 1 strain
Paenibacillus alvei = assay: Broth macrodilution MIC and MBC, clinical isolates; settings: clinical isolate, 1 strain
Gordona bronchialis = assay: Broth macrodilution MIC and MBC, clinical isolates; settings: clinical isolate, 1 strain
Listeria monocytogenes = assay: Broth macrodilution MIC and MBC, clinical isolates; settings: 3 strains
[14] = tested on: Corynebacterium diphtheriae; assay: Broth macrodilution MIC and MBC, clinical isolates; settings: 3 strains
Gardnerella vaginalis = assay: Broth macrodilution MIC and MBC, clinical isolates; settings: 2 strains
[15] = tested on: Staphylococcus aureus ATCC 29213; assay: Broth macrodilution MIC and MBC, reference strains; settings: ATCC29213
[16] = tested on: S. epidermidis Presque Isle 4653; assay: Broth macrodilution MIC and MBC, reference strains; settings: Staphylococcus epidermidis
[17] = tested on: Micrococcus luteus Presque Isle 456; assay: Broth macrodilution MIC and MBC, reference strains
[18] = pH 6, range of 3 determinations
[19] = pH 7, range of 3 determinations
[20] = pH 8, range of 3 determinations

CC(=O)O[C@H]1CC[C@@]2(C)[C@@H](CC[C@@H]3[C@@H]2CC[C@]2(C)[C@@H](NC(=O)[C@@H]4CCCN4)CC[C@@H]32)C1
Killing (time dependence) [1]: time-dependent
time to 99.9% kill ([1]; eight times the MIC): 4 h
survivors after 24 h ([1]; eight times the MIC): no survivors
time to 99.9% kill ([1]; four times the MIC): 8 h
survivors after 24 h ([1]; four times the MIC): no survivors
time to 99.9% kill ([1]; two times the MIC): 8 h
Killing (time dependence) [2]: time-dependent
Killing (concentration dependence) (S. pneumoniae 6303): concentration-dependent
Killing (time dependence) (S. pneumoniae 6303): time-dependent
time to 99.9% kill (S. pneumoniae 6303; at the MIC): 6 h
survivors after 24 h (S. pneumoniae 6303; one times the MIC): no survivors
time to 99.9% kill (S. pneumoniae 6303; two times the MIC): 2 h
survivors after 24 h (S. pneumoniae 6303; two times the MIC): no survivors
MIC Range [3, 18]: 16 µg/mL (≈ 37.2 µM)
MIC Range [3, 19]: 8 µg/mL (≈ 18.6 µM)
MIC Range [3, 20]: 4 µg/mL (≈ 9.29 µM)
MIC Range [4, 18]: 32 µg/mL (≈ 74.3 µM)
MIC Range [4, 19]: 8 µg/mL (≈ 18.6 µM)
MIC Range [4, 20]: 4 to 8 µg/mL
MIC Range (E. faecalis ATCC 29212; [18]): 32 µg/mL (≈ 74.3 µM)
MIC Range (E. faecalis ATCC 29212; [19]): 8 to 16 µg/mL
MIC Range (E. faecalis ATCC 29212; [20]): 4 to 8 µg/mL
MIC Range [5, 18]: 16 µg/mL (≈ 37.2 µM)
MIC Range [5, 19]: 4 to 8 µg/mL
MIC Range [5, 20]: 2 to 4 µg/mL
MIC [6]: 12.5-25 μg/disk
MIC [7]: 6.25-12.5 μg/disk
MIC [8]: 1.56-3.12 μg/disk
MIC [9]: >100 μg/disk
MIC [10]: >100 μg/disk
MIC [11]: >100 μg/disk
MIC50 ([12]; Staphylococcus aureus): 8 µg/mL (≈ 18.6 µM)
MIC90 ([12]; Staphylococcus aureus): 8 µg/mL (≈ 18.6 µM)
MBC ([12]; Staphylococcus aureus, read-out: MBC 50%): 16 µg/mL (≈ 37.2 µM)
MBC ([12]; Staphylococcus aureus, read-out: MBC 90%): > 64 µg/mL
MIC Range ([12]; clinical isolates, 22 strains): 4 to 8 µg/mL
share of strains with MBC/MIC ratios ≦2 ([12]; methicillin-resistant S. aureus): 73%
MBC Range (S. saprophyticus): 8 µg/mL (≈ 18.6 µM)
MIC Range (S. saprophyticus): 4 to 8 µg/mL
MBC Range [13]: 16 to 64 µg/mL
MIC Range [13]: 8 to 16 µg/mL
MIC50 (Invasive S. pneumoniae; Streptococcus pneumoniae): 8 µg/mL (≈ 18.6 µM)
MBC Range (Invasive S. pneumoniae; clinical isolates, 15 strains): 8 to 64 µg/mL
share of strains with MBC/MIC ratios ≦2 (Invasive S. pneumoniae; invasive S. pneumoniae): 93%
share of strains with MBC/MIC ratios ≦2 (Group A Streptococcus; Group A Streptococcus): 89%
MIC50 (Group A Streptococcus; Streptococcus): 8 µg/mL (≈ 18.6 µM)
MIC90 (Group A Streptococcus; Streptococcus): 16 µg/mL (≈ 37.2 µM)
MBC (Group A Streptococcus; Streptococcus, read-out: MBC 50%): 16 µg/mL (≈ 37.2 µM)
MBC (Group A Streptococcus; Streptococcus, read-out: MBC 90%): 32 µg/mL (≈ 74.3 µM)
MBC Range (Group A Streptococcus; clinical isolates, 18 strains): 8 to 32 µg/mL
MIC Range (Group A Streptococcus; clinical isolates, 18 strains): 8 to 16 µg/mL
MIC Range (Bacillus subtilis): 8 µg/mL (≈ 18.6 µM)
MBC Range (B. circulans): >64 µg/mL
MIC Range (B. circulans): 16 µg/mL (≈ 37.2 µM)
MBC Range (Paenibacillus alvei): >64 µg/mL
MIC Range (Paenibacillus alvei): 16 µg/mL (≈ 37.2 µM)
MBC Range (Gordona bronchialis): 8 µg/mL (≈ 18.6 µM)
MIC Range (Gordona bronchialis): 8 µg/mL (≈ 18.6 µM)
MBC Range (Listeria monocytogenes): 32 to 64 µg/mL
MIC Range (Listeria monocytogenes): 16 to 32 µg/mL
MBC Range [14]: 8 µg/mL (≈ 18.6 µM)
MIC Range [14]: 4 to 8 µg/mL
MBC Range (Gardnerella vaginalis): 8 µg/mL (≈ 18.6 µM)
MIC Range (Gardnerella vaginalis; read after 48 h): 4 µg/mL (≈ 9.29 µM)
MBC [15]: 64 µg/mL (≈ 149 µM)
MIC [15]: 4 µg/mL (≈ 9.29 µM)
MBC [16]: 32 µg/mL (≈ 74.3 µM)
MIC [16]: 8 µg/mL (≈ 18.6 µM)
MBC [17]: 64 µg/mL (≈ 149 µM)
MIC [17]: 8 µg/mL (≈ 18.6 µM)
